Laboratory results published in ChEMBL document CHEMBL1134045, “Inhibition of BCRP-mediated drug efflux by fumitremorgin-type indolyl diketopiperazines” (Bioorg Med Chem Lett, 2001).

Columns and labels:
[1] = test system: AIK-T8; experiment: Ability to inhibit […] activity at 2.5 uM and 200 ng/ml PSC833 in a mitoxantrone accumulation assay on T8 human cell line; type: ADME, cell-based; conditions: aik-t8, 2.5 µM
[2] = test system: T6400; experiment: Relative cellular accumulation of mitoxantrone determined with the compound at 2.5 uM and mitoxantrone at 10 uM on T6400 mouse cell line; type: functional

Row | SMILES | Fluorescence [1] [%] | Fluorescence [2] [%]
1 | CCCCCC1c2[nH]c3ccccc3c2C[C@H]2C(=O)NC(CCC(=O)OC(C)(C)C)C(=O)N12 (stereo partly drawn) | 592 | 283
2 | CCC1c2[nH]c3ccccc3c2C[C@H]2C(=O)NC(CCC(=O)OC(C)(C)C)C(=O)N12 (stereo partly drawn) | 313 | 80
3 | CCCCCC1c2[nH]c3ccccc3c2C[C@H]2C(=O)NC(Cc3c[nH]c4ccccc34)C(=O)N12 (stereo partly drawn) | 601 | 242
4 | CC1NC(=O)[C@@H]2Cc3c([nH]c4ccccc34)C(C(C)C)N2C1=O (stereo partly drawn) | 156 | 49
5 | CC(C)CC1c2[nH]c3ccccc3c2C[C@H]2C(=O)NC(CCCCNC(=O)OC(C)(C)C)C(=O)N12 (stereo partly drawn) | 649 | 305
6 | CCC1c2[nH]c3ccccc3c2C[C@H]2C(=O)NC(CCCCNC(=O)OC(C)(C)C)C(=O)N12 (stereo partly drawn) | 313 | 74
7 | CC(C)C1c2[nH]c3ccccc3c2C[C@H]2C(=O)NC(Cc3c[nH]c4ccccc34)C(=O)N12 (stereo partly drawn) | 310 | 96
8 | CC(C)CC1c2[nH]c3ccccc3c2C[C@H]2C(=O)NC(CCC(=O)OC(C)(C)C)C(=O)N12 (stereo partly drawn) | 711 | 348
9 | CCC1c2[nH]c3ccccc3c2C[C@H]2C(=O)NC(N3CCCC3)C(=O)N12 (stereo partly drawn) | 119 | 42
10 | O=C1NC(N2CCCC2)C(=O)N2C(c3ccccc3)c3[nH]c4ccccc4c3C[C@@H]12 (stereo partly drawn) | 176 | 54
11 | O=C1NC(Cc2ccccc2)C(=O)N2C(C3CCCCC3)c3[nH]c4ccccc4c3C[C@@H]12 (stereo partly drawn) |  | 91
12 | CCCCCC1c2[nH]c3ccccc3c2C[C@H]2C(=O)NC(Cc3ccccc3)C(=O)N12 (stereo partly drawn) | 514 | 199
13 | CCCCCC1c2[nH]c3ccccc3c2C[C@H]2C(=O)NC(C)C(=O)N12 (stereo partly drawn) | 436 | 175
14 | CCCCCC1c2[nH]c3ccccc3c2C[C@H]2C(=O)NC(COC(C)(C)C)C(=O)N12 (stereo partly drawn) | 607 | 275
15 | CC(C)(C)OC(=O)NCCCCC1NC(=O)[C@@H]2Cc3c([nH]c4ccccc34)C(c3ccccc3)N2C1=O (stereo partly drawn) | 305 | 85
16 | CC(C)C1c2[nH]c3ccccc3c2C[C@H]2C(=O)NC(CCC(=O)OC(C)(C)C)C(=O)N12 (stereo partly drawn) | 381 | 149
17 | CCC1c2[nH]c3ccccc3c2C[C@H]2C(=O)NC(C)C(=O)N12 (stereo partly drawn) | 114 | 43
18 | CCCCCC1c2[nH]c3ccccc3c2C[C@H]2C(=O)NC(CCCCNC(=O)OC(C)(C)C)C(=O)N12 (stereo partly drawn) | 599 | 302
19 | CC(C)(C)OC(=O)NCCCCC1NC(=O)[C@@H]2Cc3c([nH]c4ccccc34)C(C3CCCCC3)N2C1=O (stereo partly drawn) | 629 | 278
20 | CCC1c2[nH]c3ccccc3c2C[C@H]2C(=O)NC(Cc3c[nH]c4ccccc34)C(=O)N12 (stereo partly drawn) | 354 | 96
21 | CC(C)(C)OCC1NC(=O)[C@@H]2Cc3c([nH]c4ccccc34)C(C3CCCCC3)N2C1=O (stereo partly drawn) | 672 | 276

Row | SMILES | Fluorescence [1] [%] | Fluorescence [2] [%]
22 | CCC1c2[nH]c3ccccc3c2C[C@H]2C(=O)NC(COC(C)(C)C)C(=O)N12 (stereo partly drawn) | 225 | 71
23 | CC(C)(C)OCC1NC(=O)[C@@H]2Cc3c([nH]c4ccccc34)C(c3ccccc3)N2C1=O (stereo partly drawn) | 339 | 106
24 | CC(C)CC1c2[nH]c3ccccc3c2C[C@H]2C(=O)NC(Cc3c[nH]c4ccccc34)C(=O)N12 (stereo partly drawn) | 535 | 279
25 | CC(C)(C)OC(=O)CCC1NC(=O)[C@@H]2Cc3c([nH]c4ccccc34)C(C3CCCCC3)N2C1=O (stereo partly drawn) | 638 | 252
26 | CC(C)C1c2[nH]c3ccccc3c2C[C@H]2C(=O)NC(COC(C)(C)C)C(=O)N12 (stereo partly drawn) | 334 | 93
27 | O=C1NC(Cc2c[nH]c3ccccc23)C(=O)N2C(c3ccccc3)c3[nH]c4ccccc4c3C[C@@H]12 (stereo partly drawn) | 376 | 125
28 | CC(C)C1c2[nH]c3ccccc3c2C[C@H]2C(=O)NC(CCCCNC(=O)OC(C)(C)C)C(=O)N12 (stereo partly drawn) | 452 | 133
29 | CC(C)CC1c2[nH]c3ccccc3c2C[C@H]2C(=O)NC(Cc3ccccc3)C(=O)N12 (stereo partly drawn) | 431 | 191
30 | CC(C)C1c2[nH]c3ccccc3c2C[C@H]2C(=O)NC(Cc3ccccc3)C(=O)N12 (stereo partly drawn) | 359 | 104
31 | CC(C)CC1c2[nH]c3ccccc3c2C[C@H]2C(=O)NC(COC(C)(C)C)C(=O)N12 (stereo partly drawn) | 522 | 216
32 | O=C1NC(Cc2ccccc2)C(=O)N2C(c3ccccc3)c3[nH]c4ccccc4c3C[C@@H]12 (stereo partly drawn) | 376 | 112
33 | CCCCCC1c2[nH]c3ccccc3c2C[C@H]2C(=O)NC(N3CCCC3)C(=O)N12 (stereo partly drawn) | 370 | 119
34 | O=C1NC(N2CCCC2)C(=O)N2C(C3CCCCC3)c3[nH]c4ccccc4c3C[C@@H]12 (stereo partly drawn) | 313 | 85
35 | CCC1c2[nH]c3ccccc3c2C[C@H]2C(=O)NC(Cc3ccccc3)C(=O)N12 (stereo partly drawn) | 228 | 63
36 | CC1NC(=O)[C@@H]2Cc3c([nH]c4ccccc34)C(c3ccccc3)N2C1=O (stereo partly drawn) | 181 | 53
37 | CC(C)C1c2[nH]c3ccccc3c2C[C@H]2C(=O)NC(N3CCCC3)C(=O)N12 (stereo partly drawn) | 136 | 45
38 | O=C1NC(Cc2c[nH]c3ccccc23)C(=O)N2C(C3CCCCC3)c3[nH]c4ccccc4c3C[C@@H]12 (stereo partly drawn) | 410 | 158
39 | CC(C)(C)OC(=O)CCC1NC(=O)[C@@H]2Cc3c([nH]c4ccccc34)C(c3ccccc3)N2C1=O (stereo partly drawn) | 313 | 100
40 | CC(C)CC1c2[nH]c3ccccc3c2C[C@H]2C(=O)NC(C)C(=O)N12 (stereo partly drawn) | 333 | 80
41 | CC(C)CC1c2[nH]c3ccccc3c2C[C@H]2C(=O)NC(N3CCCC3)C(=O)N12 (stereo partly drawn) | 187 | 56
42 | CC1NC(=O)[C@@H]2Cc3c([nH]c4ccccc34)C(C3CCCCC3)N2C1=O (stereo partly drawn) | 268 | 74
